This is an account of results in patent US9079866B2, “Flap modulators” (JANSSEN PHARMACEUTICA NV, priority 2013, dated 2015).

The structures appear in SMILES notation. Counter-ions that a name gives are not always drawn.

The target in one experiment is human FLAP (Homo sapiens (Human), UniProt P20292). In words: FLAP binding assay (HTRF format). The settings on record: wild type FLAP, HTRF format. The gist of the method: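 Reported data take the mean of two different plates carrying duplicate samples and use the HTRF ratio as the measured signal.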
human FLAP, sequence (P20292 whole entry): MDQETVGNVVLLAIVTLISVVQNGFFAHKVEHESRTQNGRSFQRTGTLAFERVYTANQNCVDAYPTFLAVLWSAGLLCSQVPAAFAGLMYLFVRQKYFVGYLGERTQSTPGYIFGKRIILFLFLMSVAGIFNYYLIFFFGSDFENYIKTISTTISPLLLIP
Background: Time-resolved FRET reads energy transfer from a long-lived donor to a nearby acceptor.
In the case of `Nc1cnc(-c2ccc(-c3cccnc3S(=O)(=O)C3CCNCC3)cc2F)cn1` [Example 832, 5-{2-Fluoro-4-[2-(piperidin-4-ylsulfonyl)pyridin-3-yl]phenyl}pyrazin-2-amine hydrochloride], the Ki was 1310 nM.
Turning to `Nc1cnc(-c2ccc(-c3ccccc3)c(F)c2F)cn1` [Example 833, 5-(2,3-Difluorobiphenyl-4-yl)pyrazin-2-amine], the Ki was approximately 500 nM.
Consider `Nc1cnc(-c2ccc(-c3cc(C(F)(F)F)ccc3-c3cnc(N)nc3)cc2F)cn1` [Example 845, 5-[4′-(5-Aminopyrazin-2-yl)-3′-fluoro-5-(trifluoromethyl)biphenyl-2-yl]pyrimidin-2-amine], for which the Ki is more than 10000 nM.
`Nc1ncc(-c2ccccc2-c2cnc(-c3cnc(N)nc3)c(F)c2)cn1` [Example 854, 5-{2-[6-(2-Aminopyrimidin-5-yl)-5-fluoropyridin-3-yl]phenyl}pyrimidin-2-amine] yielded a Ki of 1280 nM.
On the same count and under the same terms, the figure for `Nc1ncc(-c2ccc(-c3ccccc3-c3cnc(N)nc3)cn2)cn1` [Example 855, 5-{5-[2-(2-Aminopyrimidin-5-yl)phenyl]pyridin-2-yl}pyrimidin-2-amine] is more than 10000 nM; for `Nc1cnc(-c2ccc(-c3cccnc3N3CCCC3)cc2F)cn1` [Example 859, 5-[2-Fluoro-4-(2-pyrrolidin-1-ylpyridin-3-yl)phenyl]pyrazin-2-amine] it is approximately 1250 nM.
Regarding `Nc1cnc(-c2ccc(-c3ccccc3N3CCCC3=O)cc2F)cn1` [Example 860, 1-[4′-(5-Aminopyrazin-2-yl)-3′-fluorobiphenyl-2-yl]pyrrolidin-2-one], the Ki was approximately 1480 nM.

The test system of another experiment is leukotriene pathway in human whole blood (LTB4 levels). In words: Human whole blood assay (A23187-stimulated LTB4). The experiment is classed as cell-based. The conditions noted are these: Homo sapiens, human whole blood diluted 1:1, A23187-stimulated; read-out: LTB4 IC50 1:1. Here is the method: The ability of the compounds of the present invention to treat a FLAP-mediated disease and/or disorder, or associated symptoms or complications thereof, was determined using the following procedures. Binding assay data represent the average value obtained from two different assay plates, with samples run in duplicate on each plate. Human whole blood assay data represent a single replicate on an assay plate using whole blood from at least one healthy donor.
An in vitro cellular assay was performed using human whole blood collected in heparin-containing tubes, which was used to test the ability of compounds to modulate the leukotriene pathway in human whole blood. The blood was diluted 1:1 in RPMI medium, pre-incubated for 15 min at 37° Celsius with test compounds at various concentrations, and then stimulated with calcium ionophore, A23187 (7 μg/mL), for 30 min at 37° Celsius. The samples were then centrifuged and plasma was removed. The plasma was diluted in assay buffer and LTB4 levels were measured using a commercial kit (Enzo Life Sciences). The concentration of each compound that was required for half-maximal inhibition (modulation) of recombinant enzyme activity (IC50) was calculated by a 4-parameter equation using the program GraphPad Prism (GraphPad software).
Turning to `CC1CN(C(=O)c2ccccc2-c2ccc(-c3cnc(N)cn3)c(F)c2)CC(C)O1` (mixture of isomers) [Example 773, 5-{2′-[(2,6-Dimethylmorpholin-4-yl)carbonyl]-3-fluorobiphenyl-4-yl}pyrazin-2-amine (diastereoisomeric mixture)], the IC50 came to 639 nM.

Staying with this experiment, now noted: Homo sapiens, human whole blood diluted 1:1 in RPMI, A23187-stimulated LTB4; read-out: LTB4 IC50 1:1.
In the case of `N#CC1CCCN(S(=O)(=O)c2ccccc2-c2ccc(-c3cnc(N)cn3)c(F)c2)C1` (racemic) [Example 63, racemic 1-{[4′-(5-Aminopyrazin-2-yl)-3′-fluorobiphenyl-2-yl]sulfonyl}piperidine-3-carbonitrile], the IC50 is 28 nM.
The same measure, in the same setting: the figure for `Nc1cnc(-c2ccc(-c3ccccc3S(=O)(=O)N3CCCC(O)C3)cc2F)cn1` (racemic) [Example 70, racemic 1-{[4′-(5-Aminopyrazin-2-yl)-3′-fluorobiphenyl-2-yl]sulfonyl}piperidin-3-ol] is 10 nM.
Still for that read-out and setting: the figure for `Nc1cnc(-c2ccc(-c3ccccc3S(=O)(=O)N3CCCC(CO)C3)cc2F)cn1` (racemic) [Example 76, racemic (1-{[4′-(5-Aminopyrazin-2-yl)-3′-fluorobiphenyl-2-yl]sulfonyl}piperidin-3-yl)methanol] is 27 nM; for `Nc1cnc(-c2ccc(-c3ccccc3S(=O)(=O)N[C@H]3CCCC[C@@H]3CO)cc2F)cn1` (racemic) [Example 121, racemic (trans)-4′-(5-Aminopyrazin-2-yl)-3′-fluoro-N-[2-(hydroxymethyl)cyclohexyl]biphenyl-2-sulfonamide] it is 10 nM; for `Nc1cnc(-c2ccc(-c3ccccc3S(=O)(=O)N3C[C@H](O)[C@@H](N4CCOCC4)C3)cc2F)cn1` (racemic) [Example 187, Racemic-1-{[4′-(5-Aminopyrazin-2-yl)-3′-fluorobiphenyl-2-yl]sulfonyl}-4-morpholin-4-ylpyrrolidin-3-ol trifluoroacetic acid salt] it is 69 nM.
Regarding `CN1CCN([C@@H]2CN(S(=O)(=O)c3ccccc3-c3ccc(-c4cnc(N)cn4)c(F)c3)C[C@H]2O)CC1` (racemic) [Example 188, Racemic-1-{[4′-(5-Aminopyrazin-2-yl)-3′-fluorobiphenyl-2-yl]sulfonyl}-4-(4-methylpiperazin-1-yl)-pyrrolidin-3-ol trifluoroacetic acid salt], the IC50 worked out at 1180 nM.

By Ki is commonly meant the dissociation constant of the complex between target and ligand, obtained from inhibition or displacement. A high value points to a looser hold on the target. In general, IC50 refers to the point on the concentration scale where inhibition reaches its midpoint.
